# Laboratory results from patent publication US12162879B2, “Pyridopyrimidine derivative, preparation method therefor and medical use thereof” (Jiangsu Hengrui Medicine Co., Ltd., priority 2018, dated 2024).
# Assays:
# [1] = system: peripheral blood mononuclear cells (PBMC); assay: Stimulation of IL12 secretion from PBMC (ELISA); type: cell-based; conditions: minimum effective concentration, human PBMC, 24 hours
# Experimental: The stimulating effect of the compounds of the present invention on the ability of secretion of IL12 and IFN γ from PBMC was determined by the following experimental method.
# • 1. RMPI 1640 (Invitrogen, 11875); • 2. FBS (Gibco, 10099-141); • 3. Ficoll-Paque PREMIUM (GE, 17-5442-02); • 4. Trypan blue solution (Sigma, T8154-100 ML); • 5. SepMate™-50 (Stemcell, 15460); • 6. Bright-LineIM blood cell counter (Sigma, Z359629-1EA); • 7. 96-well cell culture plate (Corning, 3599); • 8. 96-well v-bottom plate (Corning, 3894); • 9. Human IL-12 ELISA kit (Neobioscience Technology Co., EHC152.96); • 10. Human IFN γ kit (cisbio, 62HIFNGPEG); and • 11. PHERAStar multi-function microplate reader (BMG, PHERAStar). II. Experimental Procedures
# The compound was diluted with pure DMSO to a maximum concentration of 5 mM, and a total of 9 points were obtained by a 4-fold gradient dilution. 4 μl of the compound solution was then added to 196 μl of RMPI 1640 medium containing 10% FBS and mixed well. 50 μl of the mixture was taken and added to a 96-well cell culture plate.
# All reagents were equilibrated to room temperature. 60 ml of blood from a healthy human and the same volume of PBS (containing 2% FBS) were added to a 250 ml culture flask, gently pipetted, mixed well and diluted. 15 ml of lymphocyte separation solution Ficoll-Paque PREMIUM was added to a 50 ml PBMC centrifuge tube SepMate™-50, followed by the addition of 30 ml of the above diluted blood. The mixture was centrifuged at 1200 g for 10 minutes at room temperature. The supernatant was taken and then centrifuged at 300 g for 8 minutes. The cells were re-suspended in the RMPI 1640 medium containing 10% FBS and counted, and the number of PBMCs was adjusted to 3.33×10^6 cells/ml. 150 μl of the cell solution was added to the plate containing the compounds, and incubated in an incubator at 37° C., 5.0% CO2 for 24 hours. The cell culture plate was placed in a centrifuge, and centrifuged at 1200 rpm for 10 minutes at room temperature. 150 μl of the supernatant was taken from each well.
# The reagents in the Human IL-12 ELISA kit were equilibrated to room temperature. According to the kit's instruction, the highest concentration of the standard is 2000 pg/ml, and a total of 8 points were obtained by a 2-fold gradient dilution. The sample to be tested was diluted 20 folds. The solution was then added to a pre-coated plate at 100 μl/well. The plate was incubated at 37° C. for 90 minutes and rinsed. The […] was added at 100 μl/well, and the plate was incubated at 37° C. for 60 minutes and rinsed. HRP binding enzyme was added at 100 μl/well, and the plate was incubated at 37° C. for 30 minutes and rinsed. TMB was added, and the plate was incubated at room temperature for 5 minutes. Finally, the stop solution was added to stop the reaction, and the absorbance at 450 nm was read by the microplate reader.
# The concentration of the compound that can stimulate PBMC to produce […] that is 3 times higher than the average value of the group without the compound (SD of the group without the compound) was defined as the minimum effective concentration (MEC) value of the compound.
# [2] = target: CYP3A4 (midazolam metabolite site) (Homo sapiens (Human), UniProt P08684); assay: Inhibition of enzyme activity of midazolam metabolite site of CYP3A4 in human liver microsome; type: in vitro ADME; conditions: midazolam probe substrate, 30 minutes
# Chain of CYP3A4 (midazolam metabolite site) (P08684 whole entry): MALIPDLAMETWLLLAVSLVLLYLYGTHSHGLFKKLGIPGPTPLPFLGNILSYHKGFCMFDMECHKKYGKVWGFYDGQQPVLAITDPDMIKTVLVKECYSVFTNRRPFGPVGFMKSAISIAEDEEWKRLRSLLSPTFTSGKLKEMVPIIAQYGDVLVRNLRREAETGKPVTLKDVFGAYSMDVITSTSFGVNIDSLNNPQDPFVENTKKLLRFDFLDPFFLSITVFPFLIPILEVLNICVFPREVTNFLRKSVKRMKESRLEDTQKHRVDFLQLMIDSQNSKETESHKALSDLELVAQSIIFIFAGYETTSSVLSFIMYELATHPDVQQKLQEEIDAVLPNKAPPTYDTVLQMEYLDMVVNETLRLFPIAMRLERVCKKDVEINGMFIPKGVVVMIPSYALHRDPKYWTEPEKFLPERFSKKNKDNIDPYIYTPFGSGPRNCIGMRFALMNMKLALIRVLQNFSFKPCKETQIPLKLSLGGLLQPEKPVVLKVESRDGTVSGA
# Experimental: The effect of the compounds of the present invention on the enzyme activity of midazolam metabolite site of CYP3A4 in human liver microsomes was determined by the following experimental method.
# • 1. Phosphate buffer solution (PBS) (Shanghai Basalmedia Technologies Co., Ltd., B320, similarly hereinafter); • 2. NADPH (Sigma N-1630); • 3. Human liver microsome (Corning Gentest); • 4. ABI QTrap 4000 liquid chromatograph/mass spectrometer (AB Sciex); • 5. Inertsil C8-3 column, 4.6×50 mm, 5 μm (Dikma Technologies Inc., USA); and • 6. CYP probe substrate (15 μM midazolam, SIGMA UC429) and positive control inhibitor (ketoconazole, SIGMA K1003). II. Experimental Procedures
# 100 mM PBS buffer was formulated, which was then used to formulate 2.5 mg/ml human microsome solution and 5 mM NADPH solution. The 5× concentration of the compound working solution was diluted with PBS in gradients (150, 50, 15, 5, 1.5, 0.15, 0.015, 0 μM). The 5× concentration of ketoconazole working solution was diluted with PBS in gradients (150, 50, 15, 5, 1.5, 0.15, 0.015, 0 μM). Midazolam working solution was diluted with PBS to a concentration of 15 μM.
# 20 μl of 2.5 mg/ml microsome solution, 20 μl of 15 μM midazolam working solution, 20 μl of MgCl2 solution and 20 μl of the compound working solution (150, 50, 15, 5, 1.5, 0.15, 0.015, 0 μM, different reaction systems for each concentration) were mixed well. For the positive control group, the compound was replaced with the same concentration of ketoconazole. The mixture together with 5 mM NADPH solution was pre-incubated at 37° C. for 5 minutes. After 5 minutes, 20 μl of NADPH was added to each well, the reaction was initiated, and the plate was incubated for 30 minutes. All the incubated samples were present in duplicate. After 30 minutes, 250 μl of acetonitrile containing internal standard (100 ng/ml camptothecin) was added to all samples, mixed well, shaken at 800 rpm for 10 minutes, and then centrifuged at 3700 rpm for 10 minutes. 80 μl of the supernatant was taken and analyzed by LC-MS/MS.
# The data was calculated by Graphpad Prism to obtain the IC50 values of the compounds on the midazolam metabolite site of CYP3A4, which are shown in Table 2.
IC50 [2] [µM],SMILES,IL12 MEC [1] [nM]
> 30,"CCCC[C@](C)(CO)Nc1nc(N)nc2cc(-c3ccc(CN4CCN(C)CC4)nc3)cnc12 [Example 6, (R)-2-((2-Amino-7-(6-((4-methylpiperazin-1-yl)methyl)pyridin-3-yl)pyrido[3,2-d]pyrimidin-4-yl)amino)-2-methylhexan-1-ol]",41
> 30,"CCCC[C@](C)(CO)Nc1nc(N)nc2cc(-c3cnc(C4CCN(C)CC4)nc3)cnc12 [Example 8, (R)-2-((2-Amino-7-(2-(1-methylpiperidin-4-yl)pyrimidin-5-yl)pyrido[3,2-d]pyrimidin-4-yl)amino)-2-methylhexan-1-ol]",5

# Continued, compound first:
SMILES,IC50 [2] [µM],IL12 MEC [1] [nM]
"CCCC[C@](C)(CO)Nc1nc(N)nc2cc(-c3ccc(CN4CCCC4)nc3)cnc12 [Example 2, (R)-2-((2-Amino-7-(6-(pyrrolidin-1-ylmethyl)pyridin-3-yl)pyrido[3,2-d]pyrimidin-4-yl)amino)-2-methylhexan-1-ol]",27,23
"CCCC[C@](C)(CO)Nc1nc(N)nc2cc(-c3ccc(C4CCN(C)CC4)nc3)cnc12 [Example 4, (R)-2-((2-Amino-7-(6-(1-methylpiperidin-4-yl)pyridin-3-yl)pyrido[3,2-d]pyrimidin-4-yl)amino)-2-methylhexan-1-ol]",> 30,31
"CCCCC(C)(CO)Nc1nc(N)nc2cc(-c3ccc(CN4CCN(C)CC4)nc3)cnc12 (stereo not drawn) [Example 5, 2-((2-Amino-7-(6-((4-methylpiperazin-1-yl)methyl)pyridin-3-yl)pyrido[3,2-d]pyrimidin-4-yl)amino)-2-methylhexan-1-ol]",> 30,
